Assay results as given in ChEMBL document CHEMBL5370654, “Discovery of 3-Phenyl Indazole-Based Novel Chemokine-like Receptor 1 Antagonists for the Treatment of Psoriasis” (J Med Chem, 2023).
Activity calls are given as the source filed them. The calls are words filed in the database; no cut-off is given here.

Tests used:
[1] = Cmax in C57BL6 mouse at 30 mg/kg, po measured upto 24 hrs by LC-MS/MS analysis; format: ADME, organism-based; parameters: dose 30 mg/kg, time < 24 hrs, route po; details: in vivo
[2] = Tmax in C57BL6 mouse at 30 mg/kg, po measured upto 24 hrs by LC-MS/MS analysis; format: ADME, organism-based; details: in vivo
[3] = AUClast in C57BL6 mouse at 30 mg/kg, po measured upto 24 hrs by LC-MS/MS analysis; format: ADME, organism-based; parameters: dose 30 mg/kg, time < 24 hrs, route po; details: in vivo
[4] = Toxicity in imiquimod-induced BALB/c mouse psoriasis model assessed as change in body weight at 30 mg/kg, po qd administered for 7 days; format: organism-based; details: in vivo, 168 h, time 7 day
Chemerin-like receptor 1 [5] = biological target: T1, Chemerin-like receptor 1 (Homo sapiens, UniProt Q99788); assay: Antagonist activity at human CMKLR1
T1 sequence (Q99788 whole entry): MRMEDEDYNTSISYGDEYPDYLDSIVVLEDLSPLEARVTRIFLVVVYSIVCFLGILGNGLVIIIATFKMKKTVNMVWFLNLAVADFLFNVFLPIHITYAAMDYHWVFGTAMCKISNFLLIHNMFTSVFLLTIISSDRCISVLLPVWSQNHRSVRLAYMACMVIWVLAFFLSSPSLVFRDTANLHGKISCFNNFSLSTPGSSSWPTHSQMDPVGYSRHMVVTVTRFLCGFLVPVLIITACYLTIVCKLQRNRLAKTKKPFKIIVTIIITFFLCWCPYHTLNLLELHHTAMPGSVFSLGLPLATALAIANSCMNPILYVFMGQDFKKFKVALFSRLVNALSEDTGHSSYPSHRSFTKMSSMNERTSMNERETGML

Chemerin-like receptor 1 [6] = biological target: T1, Chemerin-like receptor 1; assay: Antagonist activity at human CMKLR1 expressed in CHO-K1 cells co-expressing Galpha-16 assessed as change in intracellular calcium concentration incubated for 30 mins in presence of chemerin-9 by FLIPR calcium 5 assay; format: functional, cell-based
[7] = Cmax in C57BL6 mouse at 10 mg/kg, po measured upto 24 hrs by LC-MS/MS analysis; format: ADME, organism-based; parameters: dose 10 mg/kg, time < 24 hrs, route po; details: in vivo
[8] = Tmax in C57BL6 mouse at 10 mg/kg, po measured upto 24 hrs by LC-MS/MS analysis; format: ADME, organism-based; details: in vivo
[9] = AUClast in C57BL6 mouse at 10 mg/kg, po measured upto 24 hrs by LC-MS/MS analysis; format: ADME, organism-based; parameters: dose 10 mg/kg, time < 24 hrs, route po; details: in vivo
Mus musculus = assay: Antiinflammatory activity against imiquimod-induced BALB/c mouse psoriasis model assessed as reduction in epidermal proliferation in mouse back skin at 0.4 mg/kg, po qd administered for 7 days by hematoxylin and eosin staining based analysis; format: functional, organism-based; details: time 7.0 day
[10] = Toxicity in imiquimod-induced BALB/c mouse psoriasis model assessed as change in body weight at 0.4 mg/kg, po qd administered for 7 days; format: organism-based; details: in vivo, 168 h, time 7 day

C[C@@H](CC(=O)O)c1ccc(OCc2cc(F)c3c(-c4cc(Cl)c(CO)c(Cl)c4)nn(C4CCCC4)c3c2)cc1
Cmax [1]: 7900 ng/mL | Tmax [2]: 120 min | AUC(0-t) at 24 h [3]: 64100 ng·h/mL | Activity [4]: Non-Toxic

CC(C)n1nc(-c2ccccc2)c2ccc(COc3ccc([C@@H](C)CC(=O)O)cc3)cc21
IC50 (Chemerin-like receptor 1 [5]): 5750 nM

CC(CC(=O)O)c1ccc(OCc2ccc3c(-c4cccc(O)c4)nn(C4CCCC4)c3c2)cc1 (racemic)
IC50 (Chemerin-like receptor 1 [6]): 2570 nM

C[C@@H](CC(=O)O)c1ccc(OCc2ccc3c(-c4cc(Cl)c(O)c(Cl)c4)nn(C4CCCC4)c3c2)cc1
IC50 (Chemerin-like receptor 1 [6]): 141 nM

C[C@@H](CC(=O)O)c1ccc(OCc2ccc3c(-c4ccc(O)cc4Cl)nn(C4CCCC4)c3c2)cc1
IC50 (Chemerin-like receptor 1 [6]): 676 nM

CC[C@@H](O)/C=C/C=C\C[C@@H](O)/C=C/C=C/C=C\[C@@H](O)CCCC(=O)O [RESOLVIN E1]
EC50 (Chemerin-like receptor 1 [5]): 1 nM

C[C@@H](CC(=O)O)c1ccc(OCc2ccc3c(-c4cc(F)c(O)cc4F)nn(C4CCCC4)c3c2)cc1
IC50 (Chemerin-like receptor 1 [6]): 513 nM

C[C@@H](CC(=O)O)c1ccc(OCc2ccc3c(-c4cc(F)c(CO)c(F)c4)nn(C4CCCC4)c3c2)cc1
IC50 (Chemerin-like receptor 1 [6]): 53.7 nM

CC(CC(=O)O)c1ccc(OCc2ccc3c(-c4cc(Cl)c(CO)c(Cl)c4)nn(C4CCCC4)c3c2)cc1 (racemic)
Cmax [7]: 2600 ng/mL | Tmax [8]: 30 min | AUC(0-t) at 24 h [9]: 11700 ng·h/mL

CC(CC(=O)O)c1ccc(OCc2ccc3c(-c4cc(Cl)c(O)c(Cl)c4)nn(C4CCCC4)c3c2)cc1 (racemic)
IC50 (Chemerin-like receptor 1 [6]): 309 nM | Cmax [7]: 225 ng/mL | Tmax [8]: 30 min | AUC(0-t) at 24 h [9]: 823 ng·h/mL

Cc1ccc(-c2nn(C3CCCC3)c3cc(COc4ccc(C(C)CC(=O)O)cc4)ccc23)cc1 (racemic)
IC50 (Chemerin-like receptor 1 [6]): 2340 nM

CN(Cc1cnc2nc(N)nc(N)c2n1)c1ccc(C(=O)N[C@@H](CCC(=O)O)C(=O)O)cc1 [METHOTREXATE]
Activity (Mus musculus): Active | Activity [10]: Non-Toxic

CC(CC(=O)O)c1ccc(OCc2ccc3c(-c4ccc(Cl)cc4)nn(C4CCCC4)c3c2)cc1 (racemic)
IC50 (Chemerin-like receptor 1 [6]): 2290 nM

C[C@@H](CC(=O)O)c1ccc(OCc2cc(F)c3c(-c4cc(Cl)c(O)c(Cl)c4)nn(C4CCCC4)c3c2)cc1
IC50 (Chemerin-like receptor 1 [6]): 19.1 nM

COc1ccc(-c2nn(C3CCCC3)c3cc(COc4ccc(C(C)CC(=O)O)cc4)ccc23)cc1 (racemic)
IC50 (Chemerin-like receptor 1 [6]): 1100 nM

C[C@@H](CC(=O)O)c1ccc(OCc2ccc3c(-c4ccc(O)c(O)c4)nn(C4CCCC4)c3c2)cc1
IC50 (Chemerin-like receptor 1 [6]): 2090 nM

C[C@@H](CC(=O)O)c1ccc(OCc2ccc3c(-c4ccc(O)c([N+](=O)[O-])c4)nn(C4CCCC4)c3c2)cc1
IC50 (Chemerin-like receptor 1 [6]): 1700 nM

C[C@@H](CC(=O)O)c1ccc(OCc2ccc3c(-c4cc(Cl)c(O)cc4Cl)nn(C4CCCC4)c3c2)cc1
IC50 (Chemerin-like receptor 1 [6]): 525 nM
